We go through 16 compounds from patent publication US4525475A, “Prevention of thrombolic disorder with imidazole derivatives and salts thereof” (priority 1979, dated 1985).

Where two headings read alike, the source gives them in different places.

The target of experiment [1] is T1, TXA2 synthetase (Equus caballus, UniProt A0A9L0T8T9).
T1 construct: labelled arachidonic acid as substrate, thromboxane B2 measured by TLC
T1 sequence (A0A9L0T8T9 2-534): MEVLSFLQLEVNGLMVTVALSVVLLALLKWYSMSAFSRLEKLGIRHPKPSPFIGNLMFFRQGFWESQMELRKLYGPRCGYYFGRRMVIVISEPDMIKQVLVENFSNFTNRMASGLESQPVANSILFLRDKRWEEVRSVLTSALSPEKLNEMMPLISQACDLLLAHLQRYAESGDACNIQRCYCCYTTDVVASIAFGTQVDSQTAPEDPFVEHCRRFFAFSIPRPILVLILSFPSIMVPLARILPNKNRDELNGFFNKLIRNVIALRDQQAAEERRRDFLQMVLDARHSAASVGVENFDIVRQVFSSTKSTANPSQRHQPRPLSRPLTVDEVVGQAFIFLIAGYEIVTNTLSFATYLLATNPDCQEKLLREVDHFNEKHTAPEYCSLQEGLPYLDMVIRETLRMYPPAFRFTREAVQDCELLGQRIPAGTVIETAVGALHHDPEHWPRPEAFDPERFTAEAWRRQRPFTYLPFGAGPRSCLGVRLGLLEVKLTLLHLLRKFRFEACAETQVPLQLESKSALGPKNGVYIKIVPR
The experiment in a line: Inhibition of TXA2 synthetase: thromboxane (thromboxane B2) produced from labelled arachidonic acid by homogenised horse platelets. Format: biochemical. The settings on record: horse platelet homogenate, 100 mM Tris buffer pH 7.4, 5 min preincubation at ambient temperature, 3 min at 37° C. with arachidonic acid. The protocol:
(§1) Horse platelets were prepared from whole horse blood by differential centrifugation. Approximately 10^6 platelets were homogenised in 1 ml 100 mM Tris buffer pH 7.4. Various concentrations of active compound were added and the reaction sets incubated for 5 minutes at ambient temperature. To each tube was added 20 nM of arachidonic acid containing 10^6 disintegrations per minute (DPM) of labelled arachidonic acid and the tubes incubated for 3 minutes at 37° C. in a shaking water bath. After incubation the radioactive products were extracted from the acidified aqueous phase with ethyl acetate and after concentration resolved by thin layer chromatography on silica gel with chloroform/methanol/acetic acid/water (90:8:1:0.8) as a developing solvent. The amount of thromboxane produced was measured by scraping the radioactive zone corresponding to thromboxane B2 and estimating the radioactivity in a liquid scintillation counter.
The concentration of active compound to reduce the enzyme activity by 50% (ED50) was established.

The test system of experiment [2] is PGE, PGF and PGD. Kind of experiment: Selectivity: amount of PGE, PGF and PGD produced, measured in a similar manner to the thromboxane test. The settings on record: greater selectivity = more anti-aggregating prostaglandins produced. On the set-up: key: 0: no selectivity; +: low selectivity; ++: medium selectivity; +++: high selectivity; ++++: exceptionally high selectivity. Format: biochemical, horse. As to the method:
as §1
The selectivity of the active compounds was measured in a similar manner to that described above and the amount of PGE, PGF and PGD produced was determined. The greater the selectivity, the more of the anti-aggregating prostaglandins are produced.
The ED50 and Selectivity results are shown in Table A in which 0 indicates no selectivity; +low selectivity; ++medium selectivity; +++high selectivity: ++++exceptionally high selectivity; ND not determined.

Experiment [3] has as its system enzymic conversion of the endoperoxides (PGG2 and PGH2) to thromboxane A2 by platelet microsomes. Particulars: Moncada et al., Prostaglandins, 13/4, 611-618, 1977; cited from earlier work.
The subject of experiment [4] is serum cholesterol. Particulars: U.K. Pat. No. 1 364 312; Biochem. Pharmacol., 24, 1902-1903, 1975; cited from earlier work.
The mark [5] stands for this setting: read-out: ED50 (concentration of active compound to reduce the enzyme activity by 50%) (converted).

With `Cn1ccnc1` [1-Methylimidazole, reference compound], the IC50 in experiment [1] (setting [5]) is at least 2440 µM. In experiment [2], the Selectivity result is “++”. For the same compound, the “inhibition of the enzymic conversion of the endoperoxides to thromboxane A2” value in experiment [3] is “some degree of inhibition”. `CCCCCCCCCCCCn1ccnc1` [1-n-dodecylimidazole]: in experiment [4], the “lowering serum cholesterol levels” value is reported as “capable of lowering serum cholesterol levels”. As for `CC1(C)C(=CCn2ccnc2)C2CCC1C2` (centres unmarked) [15 (b), 1-[2-(3,3-Dimethylbicyclo[2.2.1]heptan-2-ylidene)ethyl]imidazole], the IC50 in experiment [1] (setting [5]) is under 69.3 µM. With `c1cn(CC2C3CC4C(C3)C24)cn1` (centres unmarked) [15 (c), 1-(Tricyclo[2.2.1.0^3,5]heptan-2-ylmethyl)imidazole], the IC50 in experiment [1] (setting [5]) was under 57.4 µM. The Selectivity result in experiment [2] is reported as “+++”. The corresponding values for `CC1(C)C2CCC(CCn3ccnc3)C1C2` (centres unmarked) [Example 1, 1-[2-(6,6-dimethylbicyclo[3.1.1]heptan-2-yl)ethyl]imidazole] are 19.7 µM and “+++”. As to `CC1(C)C2CC=C(CCn3ccnc3)C1C2` (centres unmarked) [Example 2, 1-[2-(6,6-Dimethylbicyclo[3.1.1]hept-2-en-2-yl)ethyl]imidazole], in experiment [1] (setting [5]), the IC50 is 16.2 µM. Further, in experiment [2], the Selectivity entry is listed as “+++”. Consider `C1=CC2CC1CC2Cn1ccnc1` (centres unmarked) [Example 3, 1-(Bicyclo[2.2.1]hept-5-en-2-ylmethyl)imidazole], for which the IC50 in experiment [1] (setting [5]) is 57.4 µM. The Selectivity entry in experiment [2] was “+++”. The like results for `c1cn(CC2CC3CCC2C3)cn1` (centres unmarked) [Example 4, 1-(Bicyclo[2.2.1]heptan-2-ylmethyl)imidazole] were, in that order, 28.4 µM and “+++”. In the case of `CC1(C)C2CC=C(Cn3ccnc3)C1C2` (centres unmarked) [Example 7, 1-(6,6-Dimethylbicyclo[3.1.1]hept-2-en-2-ylmethyl)imidazole], in experiment [1] (setting [5]), the IC50 is 74.1 µM. Also, in experiment [2], the Selectivity result was “+++”. Consider `CC1(C)C2CCC(Cn3ccnc3)C1C2` (centres unmarked) [Example 8, 1-(6,6-Dimethylbicyclo[3.1.1]heptan-2-ylmethyl)imidazole], for which, in experiment [1] (setting [5]), the IC50 is 24.5 µM. Besides, in experiment [2], the Selectivity entry is listed as “+++”.

`c1cn(CCC23CC4CC(CC(C4)C2)C3)cn1` [Example 9, 1-[2-(Adamantan-1-yl)ethyl]imidazole]: the IC50 in experiment [1] (setting [5]) was 65.1 µM. Also, the Selectivity entry in experiment [2] is given as “++++”. With `c1cn(CC2COC3(CCCCC3)O2)cn1` (centres unmarked) [Example 10, 1-(1,4-Dioxaspiro[4.5]decan-2-ylmethyl)imidazole], the IC50 in experiment [1] (setting [5]) was over 225 µM. As for `c1cn(C2CC3CCC2C3)cn1` (centres unmarked) [Example 11, 1-(Bicyclo[2.2.1]heptan-2-yl)imidazole], in experiment [1] (setting [5]), the IC50 was 290 µM. Take `c1cn(CC2CN3CCC2CC3)cn1` (centres unmarked) [Example 12, 1-(1-Azabicyclo[2.2.2]octan-3-ylmethyl)imidazole]: the IC50 in experiment [1] (setting [5]) is 157 µM. For the same compound, the Selectivity entry in experiment [2] was “++”. The like results for `C1=CC2CC1CC2CC(C1CC2C=CC1C2)n1ccnc1` (centres unmarked) [Example 13, 1-{1,2-[Bis-(bicyclo[2.2.1]hept-5-en-2-yl)]ethyl}imidazole] were, in that order, 89.2 µM and “++”. `c1c[nH]cn1` [Imidazole]: in experiment [1] (read-out: ED50 (concentration of active compound to reduce the enzyme activity by 50%)), the IC50 was at least 7340 µM. Besides, the “inhibition of the enzymic conversion of the endoperoxides to thromboxane A2” value in experiment [3] is “some degree of inhibition”.
